Reference: article PMC6035067 (The Biochemical journal, 2018)
“Also recorded” adds a separate entry of the source. Like-named read-outs stand apart in the source and are kept apart here.

What was measured:
EtCYP112 [1] = target: T1, EtCYP112 (Erwinia tracheiphila, UniProt A0A0M2KIP9); format: biochemical; conditions: 20 μM substrate, 60 μM NADPH, 12 h at 25 °C
EtCYP112 [2] = target: T1, EtCYP112; assay: UV-Vis spectral binding titration of EtCYP112; conditions: for shift of the Soret-band from 419 to 391 nm: upon ligand addition
EtCYP112 [3] = target: T1, EtCYP112; conditions: previously tested as substrates; ref [9]; cited from earlier work
[4] = conversion of EtCYP112 to high-spin state upon ligand addition
[5] = α-band absorption at 570 nm upon ligand addition

With `C=C1C[C@]23C[C@H]1CC[C@H]2[C@]1(C)CCC[C@@](C)(C(=O)O)[C@H]1C[C@@H]3O` (single isomer, unassigned) [ent-7α-hydroxy kaurenoic acid] the “conversion by EtCYP112 (products observed)” value (EtCYP112 [1]) was “no products were observed”, the “High Spin State” value (EtCYP112 [2]; [4]) was 50 – 60% and the “α-band Absorbtion” value (EtCYP112 [2]; [5]) was “decreased”.
With `C=C1C[C@]23C[C@H]1CC[C@H]2[C@@]12CCC[C@@](C)(C(=O)O1)[C@H]2[C@@H]3C(=O)O` [GA9] the “High Spin State” value (EtCYP112 [2]; [4]) was less than 5%, the “shift of the Soret-band from 419 to 391 nm” value (“shift of the Soret-band” below) (EtCYP112 [2]) was roughly 5% and the “α-band Absorbtion” value (EtCYP112 [2]; [5]) was “without any decrease; also recorded: unchanged”.
In the case of `C=C1C[C@]23C[C@H]1CC[C@H]2[C@]1(C)CCC[C@@](C)(C(=O)O)[C@H]1[C@@H]3C=O` [GA12-aldehyde], the “conversion by EtCYP112 (products observed)” value (EtCYP112 [1]) is reported as “transformed into two products”, the “High Spin State” value (EtCYP112 [2]; [4]) is reported as greater than 90% and the “α-band Absorbtion” value (EtCYP112 [2]; [5]) is reported as “decreased”.
In the case of `C=C1C[C@]23C[C@H]1CC[C@H]2[C@]1(C)CCC[C@@](C)(C(=O)O)[C@H]1[C@@H]3C(=O)O` [GA12], the “High Spin State” value (EtCYP112 [2]; [4]) is reported as greater than 90% and the “α-band Absorbtion” value (EtCYP112 [2]; [5]) is reported as “decreased”.
For `C=C1C[C@]23C[C@H]1CC[C@H]2[C@@]12CCC[C@@](C)(C(=O)OC1)[C@H]2[C@@H]3C(=O)O` [GA15 (closed lactone), GA15], the “High Spin State” value (EtCYP112 [2]; [4]) was greater than 90% and the “α-band Absorbtion” value (EtCYP112 [2]; [5]) was “decreased”.
In the case of `C=C1C[C@]23C[C@H]1CC[C@H]2[C@]1(CO)CCC[C@@](C)(C(=O)O)[C@H]1[C@@H]3C(=O)O` [GA15 (open lactone), GA15], the “High Spin State” value (EtCYP112 [2]) is reported as greater than 90% and the “α-band Absorbtion” value (EtCYP112 [2]) is reported as “decreased”.
In the case of `C=C1C[C@]23C[C@H]1CC[C@H]2[C@]1(C=O)CCC[C@@](C)(C(=O)O)[C@H]1[C@@H]3C(=O)O` [GA24], the “High Spin State” value (EtCYP112 [2]; [4]) is reported as 80 – 90% and the “α-band Absorbtion” value (EtCYP112 [2]; [5]) is reported as “decreased”.
For `C=C1C[C@]23C[C@H]1CC[C@H]2[C@]1(C(=O)O)CCC[C@@](C)(C(=O)O)[C@H]1[C@@H]3C(=O)O` [GA25], the “conversion by EtCYP112” value (EtCYP112 [3]) is listed as “does not react”, the “High Spin State” value (EtCYP112 [2]; [4]) is listed as 10 – 20% and the “shift of the Soret-band” value (EtCYP112 [2]) is listed as 10–20%. For the same compound, the “α-band Absorbtion” value (EtCYP112 [2]; [5]) was “without any decrease; also recorded: unchanged”.
For `C=C1C[C@]23C[C@H]1CC[C@H]2[C@]1(C)CCC[C@@](C)(C(=O)OC)[C@H]1[C@@H]3C(=O)OC` [MeGA12], the “conversion by EtCYP112” value (EtCYP112 [3]) is given as “converted by EtCYP112 to GA9”, the “fold higher Kd than free GA12” value (EtCYP112 [2]; Kd of MeGA12 relative to GA12) is given as 5 fold and the “High Spin State” value (EtCYP112 [2]; [4]) is given as 50 – 60%. The “α-band Absorbtion” value (EtCYP112 [2]; [5]) was “decreased”.
In the case of `C=C1C[C@]23C[C@H]1CC[C@H]2[C@@]12CCC[C@@](C)(C(=O)OC1)[C@H]2[C@@H]3C(=O)OC` [MeGA15], the “conversion by EtCYP112” value (EtCYP112 [3]) is given as “converted by EtCYP112 to GA9”, the “fold more tightly bound than the analogous form of free GA15” value (EtCYP112 [2]; MeGA15 (closed δ-lactone) relative to GA15 closed lactone) is given as “about 6 fold” and the “High Spin State” value (EtCYP112 [2]; [4]) is given as 80 – 90%. The “α-band Absorbtion” value (EtCYP112 [2]; [5]) was “decreased”.
In the case of `C=C1C[C@]23C[C@H]1CC[C@H]2[C@]1(C=O)CCC[C@@](C)(C(=O)OC)[C@H]1[C@@H]3C(=O)OC` [MeGA24], the “conversion by EtCYP112” value (EtCYP112 [3]) is listed as “does not react”, the “High Spin State” value (EtCYP112 [2]; [4]) is listed as 5 – 10% and the “shift of the Soret-band” value (EtCYP112 [2]) is listed as “only induces a partial shift”. For the same compound, the “α-band Absorbtion” value (EtCYP112 [2]; [5]) was “no decrease; also recorded: unchanged”.
In the case of `C=C1C[C@@]23CC[C@H]4[C@@](C)(CCC[C@@]4(C)C=O)[C@@H]2CC[C@@H]1C3` [ent-kaurenal], the “conversion by EtCYP112 (products observed)” value (EtCYP112 [1]) is reported as “no products were observed”, the “High Spin State” value (EtCYP112 [2]; [4]) is reported as 5 – 10% and the “α-band Absorbtion” value (EtCYP112 [2]; [5]) is reported as “decreased”.
In the case of `C=C1C[C@@]23CC[C@@H]4C(C)(C)CCC[C@@]4(C)[C@@H]2CC[C@@H]1C3` [ent-kaurene], the “conversion by EtCYP112 (products observed)” value (EtCYP112 [1]) is reported as “did not serve as substrates”, the “High Spin State” value (EtCYP112 [2]; [4]) is reported as less than 5% and the “shift of the Soret-band” value (EtCYP112 [2]) is reported as “only induces a small shift”. The “α-band Absorbtion” value (EtCYP112 [2]; [5]) was “no decrease; also recorded: unchanged”.
With `C=C1C[C@@]23CC[C@H]4[C@@](C)(CCC[C@@]4(C)C(=O)O)[C@@H]2CC[C@@H]1C3` [ent-kaurenoic acid] the “conversion by EtCYP112 (products observed)” value (EtCYP112 [1]) was “no products were observed”, the “High Spin State” value (EtCYP112 [2]; [4]) was 50 – 60% and the “α-band Absorbtion” value (EtCYP112 [2]; [5]) was “decreased”.
In the case of `C=C1C[C@@]23CC[C@@H]4[C@](C)(CO)CCC[C@@]4(C)[C@@H]2CC[C@@H]1C3` [ent-kaurenol], the “conversion by EtCYP112 (products observed)” value (EtCYP112 [1]) is reported as “no products were observed”, the “High Spin State” value (EtCYP112 [2]; [4]) is reported as 20 – 30% and the “α-band Absorbtion” value (EtCYP112 [2]; [5]) is reported as “decreased”.
In the case of `C=C1C[C@@]23CC[C@H]4[C@@](C)(CCC[C@@]4(C)C(=O)OC)[C@@H]2CC[C@@H]1C3` [methyl-ent-kaurenoate], the “conversion by EtCYP112 (products observed)” value (EtCYP112 [1]) is reported as “no products were observed”, the “High Spin State” value (EtCYP112 [2]; [4]) is reported as 10 – 15% and the “α-band Absorbtion” value (EtCYP112 [2]; [5]) is reported as “decreased”.
